# Read-outs that look alike come from different tables or passages of the source.
# How the values were obtained:
# [1] = Measurement of fluorescent property of compound (spectrofluorometer); type: physicochemical; conditions: 5 μM DMSO solution
# Method: The excitation wavelength and fluorescence wavelength of the compound were measured by a FL4500 spectrofluorometric measuring machine manufactured by Hitachi High-Technologies Corporation.
# [2] = test system: K562 ALDH (+) fraction (cancer stem cells); assay: Cancer stem-cell selective inhibitory action against chronic myelocytic leukemia cells, ALDH (+) fraction, CellTiter-Glo; type: cell-based; conditions: Homo sapiens, 24 hours; for activity at 10 µg/mL: 10 μg/ml; for activity at 1 µg/mL: 1 μg/mL
# Method: (§1) Human chronic myelocytic leukemia cells, K562, were pre-cultured in RPMI1640 medium containing 10% FBS at 37° C. in a 5% CO2 ambient. Then, a fraction containing 80% or more of cancer stem cells was extracted by use of ALDEFLUOR reagent (manufactured by VERITAS Corporation) and FACSAria flow cytometry (manufactured by Nippon Becton, Dickinson and Company). Subsequently, Compound (5) was added to the medium so as to obtain a final concentration of 10 μg/mL and cultured at 37° C. for 24 hours in a 5% CO2 ambient. The cultured cells were analyzed for viable cell count according to CellTiter-Glo Luminescent Cell Viability Assay (manufactured by Promega KK.). As a reference, the number of cells cultured in a medium containing a 0.1% dimethylsulfoxide solution (hereinafter, simply referred to as DMSO) in place of a medium containing Compound (1), in the aforementioned operation, was used as 0.1. Note that hereinafter, an ALDEFLUOR reagent positive fraction (deemed as cancer stem cells) is represented by ALDH (+), whereas an ALDEFLUOR reagent negative fraction (not deemed as cancer stem cells) is represented by ALDH (−), in some cases.
# (§2) The same operation as in Experimental Example 12 was repeated except that Compound (5) in Experimental Example 12 was changed to the compounds shown in Table 4 and final concentrations shown in Table 4 were used and viable cell counts were separately analyzed. Note that the growth rate in Examples herein is a numerical value of the number of cells obtained after culture relative to the number of cells (regarded as 0.1) grown in a medium containing 0.1% DMSO.
# (§3) The same operation as in Experimental Example 12 was repeated except that Compound (5) in Experimental Example 12 was changed to Imatinib (manufactured by NOVARTIS), which is a general anticancer drug, and comparative compounds shown in Table 4 and final concentrations shown in Table 4 were used and viable cell counts were separately analyzed.
# (§4) The growth suppressive effect of cancer stem cells was evaluated based on the following criteria. Note that the growth rate in Examples herein is a numerical value relative to the number of cells (regarded as 0.1) grown in a medium containing 0.1% DMSO. • A: The value of ALDH (+) is less than 0.5 (growth suppressive effect against cancer stem cells is extremely high) • B: The value of ALDH (+) is 0.5 or more and less than 0.95 (growth suppressive effect against cancer stem cells is high) • C: The value of ALDH (+) is 0.95 or more (no growth suppressive effect against cancer stem cells)
# (§5) Furthermore, superiority of cancer stem cells was evaluated by comparing cancer stem cells to cancer cells based on the following criteria. ALDH (+) represents cancer stem cells; whereas ALDH (−) represents general cancer cells. • A: The value of ALDH (+)/ALDH (−) is less than 0.8 (selective inhibitory effect against cancer stem cells is extremely high) • B: The value of ALDH (+)/ALDH (−) is 0.8 or more and less than 0.95 (selective inhibitory effect against cancer stem cells is high) • C: The value of ALDH (+)/ALDH (−) is 0.95 or more (no selective inhibitory effect against cancer stem cells)
# [3] = test system: K562 ALDH (−) fraction (general cancer cells); assay: Cancer stem-cell selective inhibitory action against chronic myelocytic leukemia cells, ALDH (−) fraction, CellTiter-Glo; type: cell-based, Human; conditions: Homo sapiens, 24 hours, relative to 0.1% DMSO, read-out: ALDH(−) (growth rate); for activity at 10 µg/mL: 10 μg/ml; for activity at 1 µg/mL: 1 μg/mL
# Method: as §1, §2, §3, §4, §5
# [4] = test system: Human pancreas cancer cells, KLM-1; assay: Cancer cell inhibitory (growth suppressive) action against pancreatic cancer cells, CellTiter-Glo viable cell count; type: cell-based; conditions: KLM1, KLM-1, 10 μg/mL, 24 hours
# Method: (§6) Observation on cancer cell inhibitory (growth suppressive) action against pancreatic cancer cells Human pancreas cancer cells, KLM-1, were pre-cultured in RPMI1640 medium containing 10% FBS at 37° C. in a 5% CO2 ambient. Thereafter, 4,000 cells were seeded per well of a 96-well plate and further cultured for 24 hours. Subsequently, Compound (1) was added to the medium so as to obtain a final concentration of 10 μg/mL and cultured at 37° C. for 24 hours in a 5% CO2 ambient. The cultured cells were analyzed for viable cell count according to CellTiter-Glo Luminescent Cell Viability Assay (manufactured by Promega KK.). As a reference, the number of cells cultured in a medium containing a 0.1% dimethylsulfoxide solution (hereinafter, simply referred to as DMSO) in place of a medium containing Compound (1), in the aforementioned operation, was regarded (100%).
# Viable cell count was analyzed in the same manner as in Experimental Example 1 except that Compound (1) of Experimental Example 1 was changed to compounds shown in Table 2.
# Viable cell count was analyzed in the same manner as in Experimental Example 1 except that Compound (1) was changed to comparative compounds 1 to 4.
# Viable cell counts of Experimental Examples 1 to 7 and Comparative Examples 1 to 4 were analyzed to obtain growth rates.
# Evaluation of cancer cell inhibition against the pancreatic cancer cells (KLM-1) (growth suppression) was made based on the following criteria. Note that the growth rate in Examples herein is a numerical value of the number of cells obtained after culture relative to the number of cells (regarded as 100) grown in a medium containing 0.1% DMSO. Evaluation of cancer cell inhibition against the pancreatic cancer cells (KLM-1) was made as follows. • A: Cancer cell growth rate is less than 20% (cancer cell inhibitory (growth suppressive) effect is extremely high) • B: Cancer cell growth rate is 20% or more and less than 50% (cancer cell inhibitory (growth suppressive) effect is high) • C: Cancer cell growth rate is 50% or more (cancer cell inhibitory (growth suppressive) effect is low)
# [5] = test system: Prostatic cancer cells, PC-3; assay: Cancer cell inhibitory (growth suppressive) action against prostatic cancer cells, CellTiter-Glo viable cell count; type: cell-based; conditions: PC-3, 10 μg/mL, 24 hours
# Method: as §6, with “Prostatic” for “Observation on cancer cell inhibitory (growth suppressive) action against pancreatic cancer cells Human pancreas”, “PC-3,” for “KLM-1,”, “(11)” for “(1)”, “(11),” for “(1),”, “used as 100.” for “regarded (100%).”
# Viable cell count was analyzed in the same manner as in Experimental Example 8 except that the compounds shown in Table 3 were used in place of Compound (11) of Experimental Example 8.
# Viable cell count was analyzed in the same manner as in Experimental Example 8 except that comparative compounds 1 to 4 were used in place of Compound (11) of Experimental Example 8.
# The growth rate in Examples herein is a numerical value of the number of cells obtained after culture relative to the number of cells (regarded as 100) grown in a medium containing 0.1% DMSO.
# Evaluation of cancer cell inhibition against the prostatic cancer cells (PC-3) was made as follows. • A: Cancer cell growth rate is less than 20% (cancer cell inhibitory (growth suppressive) effect is extremely high) • B: Cancer cell growth rate is 20% or more and less than 50% (cancer cell inhibitory (growth suppressive) effect is high) • C: Cancer cell growth rate is 50% or more (cancer cell inhibitory (growth suppressive) effect is low)
# [6] = read-out: Growth suppression evaluated
# [7] = relative to 0.1% DMSO, read-out: ALDH(+) (growth rate)
# [8] = read-out: Evaluation (cancer cell growth rate)
# [9] = relative to 0.1% DMSO (100), read-out: Cancer cell growth rate (%)
Structure (SMILES),Excitation wavelength λex [1] [nm],Fluorescence wavelength λem [1] [nm],"activity at 10 µg/mL [2, 6] [%]","activity at 10 µg/mL [2, 7] [%]",activity at 10 µg/mL [3] [%],"activity at 10 µg/mL [4, 8] [%]","activity at 10 µg/mL [4, 9] [%]","activity at 10 µg/mL [5, 8] [%]","activity at 10 µg/mL [5, 9] [%]","activity at 1 µg/mL [2, 6] [%]","activity at 1 µg/mL [2, 7] [%]",activity at 1 µg/mL [3] [%]
"CCn1c2ccccc2c2cc(/C=C3/SC(=S)N(CC(=O)O)C3=O)ccc21 [compound 4, reference compound]",,,,,,≥ 50,100,≥ 50,99.9,,,
CCn1c2ccccc2c2cc(/C=C/C3=[N+](C)c4ccc5ccccc5c4C3(C)C)ccc21 [Compound 40],,,< 50,6,13,,,,,50 to 95,73,85
"CCOC(=O)Cn1c(=O)/c(=C\c2ccc3c(c2)C2CCCC2N3c2ccccc2)s/c1=C1/SC(=S)N(CC)C1=O (stereo not shown) [compound 2, reference compound]",,,,,,≥ 50,91,≥ 50,88.8,,,
"COc1ccc(N2c3ccc(/C=C4/SC(=S)N(CCC(=O)O)C4=O)cc3C3CCCC32)cc1 (stereo not shown) [compound 3, reference compound]",,,,,,≥ 50,95,≥ 50,86.5,,,
"CCN1C(=O)/C(=c2\s/c(=C/c3ccc4c(c3)c3ccccc3n4CC)c(=O)n2CC(=O)O)SC1=S [compound 1, reference compound]",,,,,,≥ 50,99,≥ 50,104,,,
"O=C(O)Cn1c(=O)/c(=C\c2ccc3c(c2)C2CCCC2N3c2ccccc2)s/c1=C1/SC(=S)N(Cc2ccccc2)C1=O (stereo not shown) [compound 5, reference compound]",,,≥ 95,107,90,,,,,≥ 95,106,97

# Continued, in another order:
Excitation wavelength λex [1] [nm],Fluorescence wavelength λem [1] [nm],Structure (SMILES),"activity at 10 µg/mL [2, 6] [%]","activity at 10 µg/mL [2, 7] [%]",activity at 10 µg/mL [3] [%],"activity at 10 µg/mL [4, 8] [%]","activity at 10 µg/mL [4, 9] [%]","activity at 10 µg/mL [5, 8] [%]","activity at 10 µg/mL [5, 9] [%]","activity at 1 µg/mL [2, 6] [%]","activity at 1 µg/mL [2, 7] [%]",activity at 1 µg/mL [3] [%]
560,677,COc1ccc(N2c3ccc(/C=C/c4sc5ccccc5[n+]4CC(=O)O)cc3C3CCCC32)cc1 (stereo not shown) [Compound 33],50 to 95,90,101,,,,,,,
586,623,CCN1c2ccc(/C=C/C3=[N+](CC)c4ccc(OC)cc4C34CCCCC4)cc2C2CCCC21 (stereo not shown) [Compound 8],< 50,23,32,20 to 50,24.3,,,,,
575,611,CCN1c2ccc(/C=C/C3=[N+](C)c4ccccc4C3(C)C)cc2C2CCCC21 (stereo not shown) [Compound 34],< 50,17,24,,,,,,,
611,720,CC1(C)C(/C=C/c2ccc3c(c2)C2CCCC2N3c2ccc(C=C(c3ccccc3)c3ccccc3)cc2)=[N+](CCC(=O)O)c2ccccc21 (stereo not shown) [Compound 31],,,,,,,,,,
488,594,CCn1c2ccccc2c2cc(/C=C/C3=[N+](C)c4ccccc4C3(C)C)ccc21 [Compound 36],< 50,13,20,,,,,,,
573,670,COc1ccc(N2c3ccc(/C=C/C4=[N+](C)c5ccccc5C4(C)C)cc3C3CCCC32)cc1 (stereo not shown) [Compound 38],< 50,5,11,,,,,,,
609,692,CCC[N+]1=C(/C=C/C=C/c2ccc(N(C)C)cc2)C(C)(C)c2ccccc21 [Compound 26],,,,< 20,8.9,< 20,5.8,,,
591,626,CCN1c2ccc(/C=C/C3=[N+](C)c4ccc5ccccc5c4C3(C)C)cc2C2CCCC21 (stereo not shown) [Compound 39],< 50,6,13,,,,,,,
592,671,COc1ccc(N2c3ccc(/C=C/C4=[N+](CCC(=O)O)c5ccccc5C4(C)C)cc3C3CCCC32)cc1 (stereo not shown) [Compound 32],50 to 95,78,90,,,,,,,

# Source: patent US10220024B2, “Method of inhibiting cancer cell, method for detecting cancer cell, and system for detecting cancer cell” (CANON KABUSHIKI KAISHA, priority 2012, dated 2019)
